Laboratory results reported in PubChem BioAssay (NCI).
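Dose response: 5 concentrations. Exposure: 48 h. Format: 96-well plates. Endpoint: linear interpolation; highest concentration if not reached. GI50: concentration for 50% inhibition of growth. TGI is the concentration that stops growth completely.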

Columns and labels:
Assay in all cases: inhibition of tumour cell growth, NCI panel, 48 h
[1] = tested on: UACC-257 melanoma
[2] = tested on: SK-MEL-28 melanoma
[3] = tested on: A549 NSCLC
[4] = tested on: HOP-92 NSCLC
[5] = tested on: NCI/ADR-RES ovarian
[6] = tested on: OVCAR-8 ovarian
[7] = tested on: RPMI-8226 leukemia
[8] = tested on: KM12 colon
[9] = tested on: MALME-3M melanoma
[10] = tested on: ACHN renal
[11] = tested on: EKVX NSCLC
[12] = tested on: HCT-15 colon
[13] = tested on: HCT-116 colon
[14] = tested on: SF-268 CNS
[15] = tested on: NCI-H23 lung
[16] = tested on: TK-10 renal
[17] = tested on: U251 CNS
[18] = tested on: NCI-H226 lung
[19] = tested on: COLO 205 colon
[20] = tested on: T-47D breast
[21] = tested on: HOP-62 NSCLC
[22] = tested on: OVCAR-3 ovarian
[23] = tested on: CCRF-CEM leukemia
[24] = tested on: 786-0 renal
[25] = tested on: OVCAR-5 ovarian
[26] = tested on: M14 melanoma
[27] = tested on: SNB-19 CNS
[28] = tested on: SF-295 CNS
[29] = tested on: MDA-MB-435
[30] = tested on: DU-145 prostate
[31] = tested on: UACC-62 melanoma
[32] = tested on: HCC-2998 colon
[33] = tested on: SK-MEL-5 melanoma
[34] = tested on: LOX IMVI melanoma
[35] = tested on: SN12C renal
[36] = tested on: SW-620 colon
[37] = tested on: SR leukemia
[38] = tested on: HS 578T breast
[39] = tested on: SNB-75 CNS
[40] = tested on: SK-OV-3 ovarian
[41] = tested on: RXF 393 renal
[42] = tested on: BT-549 breast
[43] = tested on: MOLT-4 leukemia
[44] = tested on: NCI-H460 lung
[45] = tested on: SF-539 CNS
[46] = tested on: K-562 leukemia
[47] = tested on: PC-3 prostate
[48] = tested on: HL-60(TB) leukemia
[49] = tested on: MCF7 breast
[50] = tested on: HT29 colon
[51] = tested on: A498 renal
[52] = tested on: OVCAR-4 ovarian
[53] = tested on: MDA-MB-231 breast
[54] = tested on: CAKI-1 renal
[55] = tested on: NCI-H522 lung
[56] = tested on: IGROV1 ovarian
[57] = tested on: SK-MEL-2 melanoma
[58] = tested on: UO-31 renal

Compound: CCOC(=O)C1=C(C)N(c2ccc(OC)cc2)C2(O)C=CC(=O)C3C(=O)N(c4ccccc4)C(=O)C132 (centres undefined)
- GI50 [1]: 2.78 µM
- TGI [1]: 11 µM
- GI50 [2]: 1.86 µM
- TGI [2]: 4.29 µM
- GI50 [3]: 3.29 µM
- TGI [3]: 13 µM
- GI50 [4]: 2.78 µM
- TGI [4]: 7.97 µM
- GI50 [5]: 3.57 µM
- TGI [5]: 22.3 µM
- GI50 [6]: 3.58 µM
- TGI [6]: 17.3 µM
- GI50 [7]: 1.95 µM
- TGI [7]: 5.15 µM
- GI50 [8]: 1.84 µM
- TGI [8]: 3.41 µM
- GI50 [9]: 2.04 µM
- TGI [9]: 3.83 µM
- GI50 [10]: 1.94 µM
- TGI [10]: 3.93 µM
- GI50 [11]: 2.71 µM
- TGI [11]: 12.1 µM
- GI50 [12]: 1.95 µM
- TGI [12]: 6.5 µM
- GI50 [13]: 1.17 µM
- TGI [13]: 2.48 µM
- GI50 [14]: 3.51 µM
- TGI [14]: 18.4 µM
- GI50 [15]: 2.34 µM
- TGI [15]: 6.66 µM
- GI50 [16]: 3.48 µM
- TGI [16]: 9.05 µM
- GI50 [17]: 2.14 µM
- TGI [17]: 5.21 µM
- GI50 [18]: 2.56 µM
- TGI [18]: 5.18 µM
- GI50 [19]: 1.9 µM
- TGI [19]: 3.83 µM
- GI50 [20]: 1.79 µM
- TGI [20]: 6.08 µM
- GI50 [21]: 3.72 µM
- TGI [21]: 10.3 µM
- GI50 [22]: 1.89 µM
- TGI [22]: 3.66 µM
- GI50 [23]: 1.67 µM
- TGI [23]: 13 µM
- GI50 [24]: 2.28 µM
- TGI [24]: 5.34 µM
- GI50 [25]: 4.08 µM
- TGI [25]: 22.8 µM
- GI50 [26]: 2.2 µM
- TGI [26]: 5.39 µM
- GI50 [27]: 4.74 µM
- TGI [27]: 16.8 µM
- GI50 [28]: 15.1 µM
- TGI [28]: 28.6 µM
- GI50 [29]: 2.72 µM
- TGI [29]: 7.47 µM
- GI50 [30]: 1.82 µM
- TGI [30]: 4.7 µM
- GI50 [31]: 2.41 µM
- TGI [31]: 5.47 µM
- GI50 [32]: 1.71 µM
- TGI [32]: 3.19 µM
- GI50 [33]: 1.51 µM
- TGI [33]: 3.05 µM
- GI50 [34]: 1.55 µM
- TGI [34]: 2.96 µM
- GI50 [35]: 4.09 µM
- TGI [35]: 12.5 µM
- GI50 [36]: 1.88 µM
- TGI [36]: 3.83 µM
- GI50 [37]: 1.59 µM
- TGI [37]: 5.26 µM
- GI50 [38]: 3.89 µM
- TGI [38]: 29.9 µM
- GI50 [39]: 4.16 µM
- TGI [39]: 13.8 µM
- GI50 [40]: 9.92 µM
- TGI [40]: 21.7 µM
- GI50 [41]: 1.81 µM
- TGI [41]: 3.42 µM
- GI50 [42]: 1.93 µM
- TGI [42]: 4.15 µM
- GI50 [43]: 2.42 µM
- TGI [43]: 5.66 µM
- GI50 [44]: 2.08 µM
- TGI [44]: 5.25 µM
- GI50 [45]: 2.27 µM
- TGI [45]: 5.6 µM
- GI50 [46]: 2.68 µM
- TGI [46]: > 100 µM
- GI50 [47]: 2.89 µM
- TGI [47]: 10.1 µM
- GI50 [48]: 2.34 µM
- TGI [48]: 5.82 µM
- GI50 [49]: 2.6 µM
- TGI [49]: 11.1 µM
- GI50 [50]: 2.04 µM
- TGI [50]: 3.75 µM
- GI50 [51]: 11.4 µM
- TGI [51]: 23.5 µM
- GI50 [52]: 2.21 µM
- TGI [52]: 5.89 µM
- GI50 [53]: 3.19 µM
- TGI [53]: 7.77 µM
- GI50 [54]: 3.52 µM
- TGI [54]: 10.1 µM

Compound: Cn1cnc([N+](=O)[O-])c1[Se]c1ncnc2nc[nH]c12
- TGI [1]: 16.8 µM
- TGI [2]: 20.3 µM
- TGI [3]: > 100 µM
- TGI [4]: 27.9 µM
- TGI [55]: 14.7 µM
- TGI [5]: > 100 µM
- TGI [6]: 32.2 µM
- TGI [7]: 71.7 µM
- TGI [8]: 54.1 µM
- TGI [9]: 21.1 µM
- TGI [10]: 83.5 µM
- TGI [11]: 47.4 µM
- TGI [12]: 81.6 µM
- TGI [13]: 74.5 µM
- TGI [56]: > 100 µM
- TGI [14]: 78.9 µM
- TGI [15]: 61.1 µM
- TGI [16]: > 100 µM
- TGI [17]: 44 µM
- TGI [18]: 22.6 µM
- TGI [19]: 33.3 µM
- TGI [20]: 32.8 µM
- TGI [57]: 34.5 µM
- TGI [21]: 50.3 µM
- TGI [22]: 29.5 µM
- TGI [23]: 34.1 µM
- TGI [24]: 26.5 µM
- TGI [25]: 36.2 µM
- TGI [26]: 24.8 µM
- TGI [27]: 85.8 µM
- TGI [28]: > 100 µM
- TGI [29]: 19.5 µM
- TGI [30]: > 100 µM
- TGI [31]: 10.1 µM
- TGI [33]: 6.6 µM
- TGI [34]: 10.8 µM
- TGI [35]: 32.8 µM
- TGI [58]: 60 µM
- TGI [36]: 26.8 µM
- TGI [37]: 17 µM
- TGI [38]: 39.9 µM
- TGI [39]: > 100 µM
- TGI [40]: > 100 µM
- TGI [41]: 38.7 µM
- TGI [42]: 33.8 µM
- TGI [43]: 22 µM
- TGI [44]: > 100 µM
- TGI [45]: 30.9 µM
- TGI [46]: 25.6 µM
- TGI [47]: > 100 µM
- TGI [49]: 41.8 µM
- TGI [50]: 84.4 µM
- TGI [51]: 37 µM
- TGI [52]: 23.5 µM
- TGI [53]: 19.2 µM
- TGI [54]: 22.1 µM
